The experiment has as its system Acinetobacter baumannii ATCC 17978. Nature of the experiment: Antimicrobial susceptibility testing: 90% growth inhibitory concentration (IC90) determination. Format: cell-based. Conditions: 90% growth inhibitory concentration, Acinetobacter baumannii ATCC17978, Iso-Sensitest broth, OD 600 nm over 16h, read-out: ATCC17978 IC90. Summed up: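 Growth of the Acinetobacter baumannii strain was followed by optical density at 600 nm every 20 minutes for 16h at 35±2° C. Inoculum was ~5×10^(5) CFU/ml in Iso-Sensitest medium, with twofold compound dilutions (e.g. 50 to 0.097 μM final). The 90% inhibitory concentration was derived in log-phase growth.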

[1] abbreviates: Acinetobacter baumannii, ATCC17978, 16 h.

Counter-ions that a name gives are not always drawn. Like-named read-outs stand apart in the source and are kept apart here.

For orientation: IC90 means the concentration at which the effect reaches the 90% level. `CCc1cc(Nc2nccn3c(-c4ccc(Cl)cc4Cl)cnc23)ccc1C(=O)NCCNC(=O)[C@H](N)CCCNC(=N)N` [Example 351, N-[2-[[(2R)-2-amino-5-carbamimidamidopentanoyl]amino]ethyl]-4-[[3-(2,4-dichlorophenyl)imidazo[1,2-a]pyrazin-8-yl]amino]-2-ethylbenzamide;formic acid]: the IC90 under setting [1] was 1300 nM. The same measure, in the same setting: under `CCc1cc(Nc2nccn3c(-c4ccc(Oc5ccc(OC)cn5)c(F)c4F)cnc23)ccc1C(=O)NCCNC(=O)[C@H](N)CCNC(=N)N` [Example 450, N-[2-[[(2R)-2-amino-4-guanidino-butanoyl]amino]ethyl]-4-[[3-[2,3-difluoro-4-[(5-methoxy-2-pyridyl)oxy]phenyl]imidazo [1,2-a]pyrazin-8-yl]amino]-2-ethyl-benzamide] stands 560 nM.

For `COc1ccc(-c2cnc3c(Nc4ccc(C(=O)N(C)CC(=O)N5CCNC(C(=O)O)C5)c(C)c4)nccn23)cc1F` (centres unmarked) [Example 173, 4-[2-[[4-[[3-(3-fluoro-4-methoxyphenyl)imidazo[1,2-a]pyrazin-8-yl]amino]-2-methylbenzoyl]-methylamino]acetyl]piperazine-2-carboxylic acid;hydrochloride], the IC90 under setting [1] came out at 8600 nM. Consider `CCc1cc(Nc2nccn3c(-c4ccc(Oc5cc(OC)ncn5)c(F)c4F)cnc23)ccc1C(=O)N[C@@H](C)CN` [Example 463, (S)-N-(1-aminopropan-2-yl)-4-((3-(2,3-difluoro-4-((6-methoxypyrimidin-4-yl)oxy)phenyl)imidazo[1,2-a]pyrazin-8-yl)amino)-2-ethylbenzamide], for which the IC90 under setting [1] amounted to 840 nM. The same measure, in the same setting: under `Cc1cc(Nc2nccn3c(-c4ccc(OC(F)F)cc4)cnc23)ccc1C(=O)NCCCCCN1CCOCC1` [Example 25, 4-((3-(4-(difluoromethoxy)phenyl)imidazo[1,2-a]pyrazin-8-yl)amino)-2-methyl-N-(5-morpholinopentyl) benzamide] stands 160 nM. In the case of `COc1ccc(-c2cnc3c(Nc4ccc(C(=O)NCCCN5CCNC(=O)C5)c(C)c4)nccn23)c(F)c1F` [Example 65, 4-((3-(2,3-difluoro-4-methoxyphenyl)imidazo [1,2-a]pyrazin-8-yl)amino)-2-methyl-N-(3-(3-oxopiperazin-1-yl)propyl)benzamide], under setting [1], the IC90 amounted to 120 nM. On the same count and under the same terms, under `Cc1cc(Nc2nccn3c(-c4ccc(OC(F)F)cc4)cnc23)ccc1C(=O)N(C)CC(=O)N(C)CC(=O)N1CCN(C)CC1` [Example 171, 4-[[3-[4-(difluoromethoxy)phenyl]im-idazo[1,2-a]pyrazin-8-yl]amino]-N,2-dimethyl-N-[2-[methyl-[2-(4-methylpiperazin-1-yl)-2-oxoethyl]amino]-2-oxoethyl]benzamide] stands 3600 nM. In the case of `C#CCOc1ccc(-c2cnc3c(Nc4ccc(C(=O)NCCCN)c(CC)c4)nccn23)c(F)c1F` [Example 394, N-(3-aminopropyl)-4-[[3-(2,3-difluoro-4-prop-2-ynoxy-phenyl)imidazo[1,2-a]pyrazin-8-yl]amino]-2-ethyl-benzamide; formic acid], under setting [1], the IC90 amounted to 310 nM. For `CCc1cc(Nc2nccn3c(-c4ccc(OC)c(F)c4F)cnc23)ccc1C(=O)NCCNC(=O)[C@@H](N)CCCNC(=N)NCCCC(=O)O` [Example 157, (S)-7-amino-1-(4-((3-(2,3-difluoro-4-methoxyphenyl)imidazo[1,2-a]pyrazin-8-yl)amino)-2-ethylphenyl)-12-imino-1,6-dioxo-2,5,11,13-tetraazaheptadecan-17-oic acid trihydrochloride], the IC90 worked out at 320 nM. As for `COc1ccc(-c2cnc3c(Nc4ccc(C(=O)N(C)CCN5CCOC(CN(C)C)C5)c(C)c4)nccn23)cc1F` (centres unmarked) [Example 108, N-[2-[2-[(dimethylamino)methyl]morpholin-4-yl]ethyl]-4-[[3-(3-fluoro-4-methoxy-phenyl)imidazo[1,2-a]pyrazin-8-yl]amino]-N,2-dimethyl-benzamide; formic acid], the IC90 was found to be 1200 nM. With `COc1ccc(-c2cnc3c(Nc4ccc(C(=O)N(C)CCC5CCNCC5)c(C)c4)nccn23)cc1` [Example 182, 4-[[3-(4-methoxyphenyl)imidazo[1,2-a]pyrazin-8-yl]amino]-N,2-dimethyl-N-(2-piperidin-4-ylethyl)benzamide; hydrochlo-ride], under setting [1], the IC90 was found to be 180 nM. Still for that read-out and setting: under `CCc1cc(Nc2nccn3c(-c4ccc(OCC#N)c(F)c4F)cnc23)ccc1C(=O)NCCNC(=O)[C@@H](N)CO` [Example 135, N-[2-[[(2S)-2-amino-3-hydroxy-propanoyl]amino]ethyl]-4-[[3-[4-(cyanomethoxy)-2,3-difluoro-phenyl]imidazo[1,2-a]pyrazin-8-yl]amino]-2-ethyl-benzamide formate] stands 90 nM; under `Cc1cc(Nc2nccn3c(-c4ccc(OC(F)F)cc4)cnc23)ccc1C(=O)NCC1CCN(C)CC1` [Example 198, 4-[[3-[4-(difluoromethoxy)phenyl]im-idazo[1,2-a]pyrazin-8-yl]amino]-2-methyl-N-[(1-methylpiperidin-4-yl)methyl]benzamide], 720 nM. Turning to `CNCC1CN(CCN(C)C(=O)c2ccc(Nc3nccn4c(-c5ccc(OC)c(F)c5)cnc34)cc2C)CCO1` (centres unmarked) [Example 109, 4-[[3-(3-fluoro-4-methoxy-phenyl)imidazo[1,2-a]pyrazin-8-yl]amino]-N,2-dimethyl-N-[2-[2-(methylaminomethyl)morpholin-4-yl]ethyl]benzamide hydrochloride], the IC90 was found to be 960 nM. Turning to `CCc1cc(Nc2nccn3c(-c4ccc(Oc5ccncn5)c(F)c4F)cnc23)ccc1C(=O)N[C@@H](C)CNC(=O)[C@@H](N)CCNC(=N)N` [Example 457, N-[(1S)-2-[[(2S)-2-amino-4-guanidino-butanoyl]amino]-1-methyl-ethyl]-4-[[3-(2,3-difluoro-4-pyrimidin-4-yloxy-phenyl)imidazo[1,2-a]pyrazin-8-yl]amino]-2-ethyl-benzamide; formic acid], the IC90 under setting [1] came out at 980 nM. Still for that read-out and setting: under `CCc1cc(Nc2nccn3c(-c4ccc(OCC#N)c(F)c4F)cnc23)ccc1C(=O)NCCNC(=O)[C@@H](N)CCCN` [Example 140, 4-[[3-[4-(cyanomethoxy)-2,3-difluoro-phenyl]imidazo[1,2-a]pyrazin-8-yl]amino]-N-[2-[[(2S)-2,5-diaminopentanoyl]amino]ethyl]-2-ethyl-benzamide formate] stands 170 nM; under `CCc1cc(Nc2nccn3c(-c4ccc(OC)c(F)c4F)cnc23)ccc1C(=O)N[C@@H](C)C(=O)NCCNC` [Example 567, 4-[[3-(2,3-difluoro-4-methoxy-phenyl)imidazo[1,2-a]pyrazin-8-yl]amino]-2-ethyl-N-[(1S)-1-methyl-2-[2-(methylamino)ethylamino]-2-oxo-ethyl]benzamide], 650 nM; under `CCc1cc(Nc2nccn3c(-c4ccc(OC)c(F)c4F)cnc23)ccc1C(=O)NC[C@@H]1CNC[C@@H]1O` [Example 531, 4-((3-(2,3-difluoro-4-methoxyphenyl)imidazo[1,2-a]pyrazin-8-yl)amino)-2-ethyl-N-(((3S,4R)-4-hydroxypyrrolidin-3-yl)methyl)benzamide hydrochloride], 150 nM.

Turning to `COc1ccc(-c2cnc3c(Nc4ccc(C(=O)N(C)CCN5CCCCC5)c(Cl)c4)nccn23)cc1F` [Example 237, 2-chloro-4-[[3-(3-fluoro-4-methoxyphenyl)imidazo[1,2-a]pyrazin-8-yl]amino]-N-methyl-N-(2-piperidin-1-ylethyl)benzamide], the IC90 under setting [1] turned out to be 1500 nM. Still for that read-out and setting: under `Cc1cc(Nc2nccn3c(-c4ccc(Cl)c(F)c4F)cnc23)ccc1C(=O)NCCCN` [Example 214, N-(3-aminopropyl)-4-[[3-(4-chloro-2,3-difluorophenyl)imidazo[1,2-a]pyrazin-8-yl]amino]-2-methylbenzamide;hydrochlo-ride] stands 690 nM; under `COc1ccc(-c2cnc3c(Nc4ccc(C(=O)NCC5CCN(C(=N)N)CC5)c(C)c4)nccn23)c(F)c1F` [Example 292, N-[(1-carbamimidoylpiperidin-4-yl)methyl]-4-[[3-(2,3-difluoro-4-methoxyphenyl)imidazo[1,2-a]pyrazin-8-yl]amino]-2-methylbenzamide], 110 nM. `COc1ccc(-c2cnc3c(Nc4ccc(C(=O)NCCC5CCN(C)CC5)c(C)c4)nccn23)cc1` [Example 48]: the IC90 under setting [1] is 220 nM.

In the case of `COc1ccc(-c2cnc3c(Nc4ccc5c(c4)CCN(CCN(C)C)C5=O)nccn23)cc1F` [Example 116, 2-[2-(dimethylamino)ethyl]-6-[[3-(3-fluoro-4-methoxy-phenyl)imidazo[1,2-a]pyrazin-8-yl]amino]-3,4-dihydroisoquinolin-1-one], the IC90 under setting [1] is 940 nM. In the case of `N#CCOc1ccc(-c2cnc3c(Nc4ccc(C(=O)NCCc5nnn[nH]5)c(Cl)c4)nccn23)c(F)c1F` [Example 104, 2-chloro-4-[[3-[4-(cyanomethoxy)-2,3-difluoro-phenyl]imidazo[1,2-a]pyrazin-8-yl]amino]-N-[2-(1H-tetrazol-5-yl)ethyl]benzamide], the IC90 stood at 1100 nM. On the same count and under the same terms, under `CCc1cc(Nc2nccn3c(-c4ccc(OC)c(F)c4F)cnc23)ccc1C(=O)N[C@@H](CN)c1ccccc1` [Example 321, N-[(1R)-2-amino-1-phenylethyl]-4-[[3-(2,3-difluoro-4-methoxyphenyl)imidazo[1,2-a]pyrazin-8-yl]amino]-2-ethylbenzamide; hydrochloride] stands 4000 nM. `CCc1cc(Nc2nccn3c(-c4ccc(OC)c(F)c4F)cnc23)ccc1C(=O)N[C@@H](C)CNC(C)=N` [Example 480, 4-[[3-(2,3-difluoro-4-methoxyphenyl)imidazo[1,2-a]pyrazin-8-yl]amino]-#N!- [(2#S!)-1-(ethanimidoylamino)propan-2-yl]-2-ethylbenzamide;formic acid]: the IC90 under setting [1] stood at 270 nM.

Source of the values: patent US20230012368A1 (Hoffmann-La Roche Inc., priority 2018, published 2023).
